Results reported in EP0567613B1, “COMPOSITIONS FOR THERAPY AND PREVENTION OF CANCER” (The Government of the United States of America, as …, priority 1991, dated 1993).
Values belong to the compound of their own block, whether it stands above or below them.

What was measured:
[1] = tested on: Leukemia K562; assay: Tumor cell growth / proliferation; conditions: K562 cell line
[2] = tested on: premalignant 10T1/2 cells; assay: cells; conditions: for Differentiation at 1 mM: sodium salts; for DC50: Mus musculus, Adipocyte, read-out: DC50, concentration of compound causing 50% differentiation; for adipocyte conversion: glutamine antagonists
Experimental: C. Quantitation of adipocytosis. Lipids stained with Oil-Red O were extracted with butanol, and the optical density at 510 nm determined.
Lower: Quantitation of adipocytosis. Cells were fixed with 37% formaldehyde and stained with Oil-Red O. The stained intracellular lipid was extracted with butanol, and the optical density was determined using a Titertek Multiskan MC, manufactured by Flow Laboratories, at a wavelength 510 nm.

[3] = tested on: C3H 10T1/2 Cells; assay: Tumorigenicity of treated cells in athymic mice; conditions: time 8 weeks
Experimental: Premalignant cells (3-4 x 10^5) were plated in 75 cm^2 dishes and 5-AzadC 0.1 µM was added to the growth medium at 20 and 48 hrs after plating. The cells were then subcultured in the absence of the nucleoside analog for an additional seven weeks. […] For the tumorigenicity assay, 4-5 week-old female athymic nude mice were inoculated s.c. with 1 x 10^6 cells and observed for tumor growth at the site of injection.

[4] = tested on: 4C8a10 cells (revertants of Haras-transformed NIH3T3 fibroblasts); assay: Tumor formation of cells pretreated in culture and injected s.c. into athymic nude mice; format: in vivo; conditions: cells pretreated with 5-AzadC 0.1 µM, after 3 weeks
Text: One-two weeks later the cells were transplanted subcutaneously into athymic mice.
(§1) The experimental model involved nonmalignant 4C8a10 cells (revertants of Haras-transformed NIH3T3 fibroblasts). […]
Frederick Cancer Research Facility).

[5] = tested on: 10T1/2 cells; assay: Neoplastic foci formation in culture
Text: […] The cells were then subcultured in the absence of the nucleoside analog for an additional seven weeks. […] For the tumorigenicity assay, 4-5 week-old female athymic nude mice were inoculated s.c. with 1 x 10^6 cells and observed for tumor growth at the site of injection.

[6] = tested on: 4C8a10 cells; assay: Malignant phenotype in culture / growth on matrigel; format: cell-based
Experimental: as §1
^b Cells were plated on top of matrigel (reconstituted basement membrane) and observed for malignant growth pattern, i.e., active replication, development of characteristic processes, and invasion.

[7] = tested on: HL-60; assay: Granulocyte differentiation (NBT reduction, morphology) and viability by trypan blue exclusion; conditions: Homo sapiens, HL-60, read-out: Cell viability
Experimental: The number of NBT positive cells was determined after 4 [solid bars] or 7 days [hatched bar] of treatment. […] Glutamine Starvation (Gln, < 0.06 mM) was as described (18).
The ability of cells to reduce nitroblue tetrazolium (NBT) is indicative of oxidase activity which is characteristic of the more mature forms of human bone marrow granulocytes. NBT reduction thus serves as an indicator of granulocyte differentiation. […] Glutamine starvation (Gln, < 0.06 mM) was as described. […] DON, ACV and HPA are glutamine antagonists.

[8] = tested on: Erythroleukemia K562 cells; assay: Induction of hemoglobin synthesis (benzidine staining, protein quantitation); conditions: HU 100 µM, seven days
[9] = tested on: Prostate Adenocarcinoma PC3; assay: Tumor cell growth / proliferation; format: cell-based; conditions: Homo sapiens, PC-3
Experimental: Studies of depth were performed with two androgenindependent human prostate adenocarcinoma cell lines, PC3 and DU145, established from bone and brain metastases, respectively.

[10] = tested on: Malignant Melanoma A375; assay: Tumor cell growth / proliferation

Compound: O=C(O)Cc1cc(O)cc(O)c1
toxicity [1]: highly toxic

DC50 [2]: < 100 µM
Compound: O=C(O)Cc1cccc2ccccc12 [1-naphthylacetate]
Differentiation at 1 mM [2]: >95%

Compound: O=C(O)Cc1ccc(O)cc1O [2,4-dihydroxyphenylacetate]
toxicity [1]: highly toxic

DC50 [2]: 500 µM
Compound: O=C(O)Cc1c(Cl)cccc1Cl [2,6-dichlorophenylacetate]
Differentiation at 1 mM [2]: 75%

Compound: O=C(O)Cc1cccc(Cl)c1 [3-chlorophenylacetate]
Differentiation at 1 mM [2]: 80% | DC50 [2]: 500 µM

DC50 [2]: 1000 µM
Compound: O=C(O)Cc1ccc(Cl)cc1 [4-chlorophenylacetate]
Differentiation at 1 mM [2]: 50%

DC50 [2]: 700 µM
Compound: O=C(O)Cc1ccc(F)cc1 [4-fluorophenylaceatae]
Differentiation at 1 mM [2]: 65%

Tumors Diameter ([3]; 5-AzadC 0.1 µM): 5.5 ± 2.5 mm ± S.D. | Tumor Formation Size, mean (range) [4]: 11.5 (4-19) mm | frequency of foci of neoplastically transformed cells [5]: about 7x10^-4 | time until malignant conversion evident ([6]; transient treatment of premalignant cells): ≤ 2 days
Compound: Nc1ncn([C@H]2C[C@H](O)[C@@H](CO)O2)c(=O)n1 [5-AzadC, 5-aza-2'-deoxycytidine, reference compound]
Tumors Incidence ([3]; 5-AzadC 0.1 µM at 20 and 48 hrs after plating, 1 x 10^6 cells s.c.): 8/8 | Tumor Formation Incidence ([4]; 5x10^5 cells per site s.c.): 8/8 | Growth on matrigel ([6]; 5-AzadC 0.1 µM): +

Compound: N[C@H](C(=O)O)[C@@H]1CC(Cl)=NO1 [ACV, acivicin]
viability at 1 µg/mL [7]: 63% | viability at 3 µg/mL [7]: 63% | adipocyte conversion [2]: neither glutamine starvation nor by treatment with glutamine antagonists such as DON and ACV resulted in adipocyte conversion

Compound: [N-]=[N+]=CC(=O)CC[C@H](N)C(=O)O [DON, 6-diazo-5-oxo-L-norleucine]
viability at 25 µg/mL [7]: 75% | viability at 30 µg/mL [7]: 75% | adipocyte conversion [2]: neither glutamine starvation nor by treatment with glutamine antagonists such as DON and ACV resulted in adipocyte conversion

Compound: NC(=O)NO [HU, hydroxyurea, reference compound]
Benzidine Positive Cells [8]: 17.2%

Compound: Cc1ccc(C(=O)Nc2ccc(S(=O)(=O)O)c3cc(S(=O)(=O)O)cc(S(=O)(=O)O)c23)cc1NC(=O)c1cccc(NC(=O)Nc2cccc(C(=O)Nc3cc(C(=O)Nc4ccc(S(=O)(=O)O)c5cc(S(=O)(=O)O)cc(S(=O)(=O)O)c45)ccc3C)c2)c1 [Suramin, suramin]
activity at 75 µg/mL ([9]; Suramin 75 µg/ml): 58.5% | activity at 150 µg/mL ([9]; Suramin 150 µg/ml): 46.5% | activity at 300 µg/mL ([9]; Suramin 300 µg/ml): 31% | Growth ([10]; Suramin 38 µg/ml): 78.3 % of control | Viability ([10]; Suramin 38 µg/ml): > 95% | Growth ([10]; Suramin 75 µg/ml): 56.8 % of control | Viability ([10]; Suramin 75 µg/ml): > 95% | Growth ([10]; Suramin 150 µg/ml): 38.6 % of control | Viability ([10]; Suramin 150 µg/ml): 92% | Growth ([10]; Suramin 300 µg/ml): 26.6 % of control | Viability ([10]; Suramin 300 µg/ml): 82%
